Test results as given in patent publication US6855329B1, “Surface coating spatially controlled patterns” (Massachusetts Institute of Technology, priority 1998, dated 2005).

Tests used:
[1] = cited from earlier work
[2] = test system: Bovine aortic endothelial cells (BAECs); details: 48hr
Description: (§1) A patterned polymer surface is prepared as described in Example 1;
(§2) Bovine aortic endothelial cells (BAECs) were maintained in low glucose Dulbecco's modifed Eagle's medium (DMEM) supplemented with 10% fetal bovine serum, 0.5% penicillin, 0.5% streptomycin and 1% L-glutamine in a humidified incubator at 37° C. and 5% CO2. Cells were passaged by trypsinisation before reaching confluence, usually every fifth day. Fresh media were added every other day. PC12 cells (ATCC CRL 1721) were grown in suspension culture in F-12K media supplemented with 15% horse serum, 2.5% fetal bovein serum, 0.5% penicillin, 0.5% streptomycin and 1% L-glutamine in a humidified incubator at 37° C. and 5% CO2. Cells were passaged 1:5 every third day. All cell culture reagents were obtained from Sigma unless otherwise stated.
(§3) BAECs between passages 7 and 9 were removed from tissue culture flasks by trypsinisation, pelleted by centrifugation, resuspended, washed three times and diluted to the appropriate concentration in serum-free MDEM. PC12 cells were primed with culture medium containing 50 ng/ml 7S nerve growth factor (NGF) 48 h prior to the experiment. The cells were pelleted by centrifugation, washed three times with serum-free F-12K medium, passed through a 22-guage needle to obtain a single cell suspension, and diluted to the appropriate concentration with serum-free. F-12K medium supplemented with 50ng/ml 7S NGF. For both cell types, approximately 10,000 cells/cm^2 were added to each sample and the plates returned to the incubator for the duration of the experiment (48hr). At the end point of the experiment, the samples were washed gently with PBS to remove unattached cells and visualised with a Nikon Diaphot TMD inverted microscope equipped with a Hitachi HV-C20 high resolution CCD video camera using phase contrast objectives. Images were digitised using NIH Image (v1.61) image analysis software. In addition, some BAEC samples were fixed in 10% neutral buffered formalin for 10 min, washed with water, and stained with hematoxylin for visualisation.

[3] = test system: PC12 cells; details: NGF-primed cells, 48hr
Description: as §1, §2, §3

[4] = test system: smooth muscle cells, fibroblasts or platelets; details: binds to the integrin on human endothelial cells; cited from earlier work

In the case of CSRARKQAASIKVAVSADR, the water solubility [1] is listed as “water soluble”.

In the case of IKVAV (SEQ ID NO:2), the water solubility [1] is listed as “not significantly water soluble”.

For biotin-G11 GRGDS (SEQ ID NO:18), the “cell adhesion to the 30 or 12 μm-wide lines” value ([2]; 30 or 12 μm-wide lines) was “little cell adhesion”, the “cell coverage of the 70 and 50 μm width lines” value ([2]; 70 and 50 μm width lines) was “Complete cell coverage” and the “adhesion and spreading of BAECs on functionalised lines” value ([2]; serum-free medium, approximately 10,000 cells/cm^2, no adhesion to unfunctionalised areas between the lines) was “adhered and spread”.

With “biotin-G5CSRARKQAASIKVAVSADR (SEQ ID NO:19)” the “neurite outgrowth of PC12 cells on the micropattern” value ([3]; neurites restricted from crossing the line boundary) was “Directionally controlled neurite outgrowth was stimulated” and the “adherence of PC12 cells to functionalised lines” value ([3]; serum-free F-12K with 50ng/ml 7S NGF, only a small degree of cell adhesion between the lines) was “selective adherence”.

For REDV (SEQ ID NO:4), the “adhesion or spreading of smooth muscle cells, fibroblasts or platelets” value [4] is listed as “does not support adhesion or spreading”.
